Data: patent US10647675B2 (priority 2015, dated 2020)
Converted amounts (≈) assume the structure as drawn.

Experiments:
[1] = tested on: Trichophyton rubrum KD-1130; experiment: Antifungal activity evaluation test: minimum inhibitory concentration (MIC), broth dilution by reference to CLSI M38-A2; assay type: cell-based; details: KD1130, read-out: MIC (T. rubrum)
Procedure, shortened: (§1)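 Broth microdilution after CLSI M38-A2: 2-fold DMSO dilution series in MOPS-buffered RPMI 1640 pH 7.0, inoculum 2×10^3 cells/mL final. Incubated 35° C for 4 days; MIC (μg/mL) is lowest concentration giving visually ≥80% growth inhibition versus growth control.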

[2] = tested on: Trichophyton mentagrophytes SM-110; experiment: as above; assay type: cell-based; details: SM110, read-out: MIC (T. menta.)
Procedure, shortened: as §1

SMILES | MIC [1] [µg/mL] | MIC [2] [µg/mL]
COc1ccncc1-c1cccnc1Oc1ccc(OCc2ccccc2)nc1 [I-177, 2-{[6-(benzyloxy)pyridin-3-yl]oxy}-4′-methoxy-3,3′-bipyridine] | ≤ 0.1 | ≤ 0.1
COc1ccccc1-c1cccnc1Oc1cnc(C(F)(F)F)nc1 [I-178] | ≤ 0.1 | ≤ 0.1
COc1cc(F)ccc1-c1cccnc1Oc1cnc(C(F)(F)F)nc1 [I-179, 5-{[3-(4-fluoro-2-methoxyphenyl)pyridin-2-yl]oxy}-2-(trifluoromethyl)pyrimidine] | ≤ 0.1 | ≤ 0.1
COc1ncc(Cl)cc1-c1cccnc1Oc1cnc(C(F)(F)F)nc1 [I-180, 5-chloro-2-methoxy-2′-{[2-(trifluoromethyl)pyrimidin-5-yl]oxy}-3,3′-bipyridine] | ≤ 0.1 | ≤ 0.1
COc1ccccc1-c1cccnc1Oc1cnc(C(F)(F)C(F)(F)F)nc1 [I-181, 5-{[3-(2-methoxyphenyl)pyridin-2-yl]oxy}-2-(pentafluoroethyl)pyrimidine] | ≤ 0.1 | 0.2 to 0.78 (≈ 0.503 to 1.96 µM)
CCCN(C)c1ncc(Oc2ncccc2-c2ccccc2OC)cn1 [I-182, 5-{[3-(2-methoxyphenyl)pyridin-2-yl]oxy}-N-methyl-N-propylpyrimidin-2-amine] | ≤ 0.1 | ≤ 0.1
CCCN(C)c1ncc(Oc2ncccc2-c2cccnc2OC)cn1 [I-183] | ≤ 0.1 | ≤ 0.1
CCN(C)c1ncc(Oc2ncccc2-c2ccc(F)cc2OC)cn1 [I-184, N-ethyl-5-{[3-(4-fluoro-2-methoxyphenyl)pyridin-2-yl]oxy}-N-methylpyrimidin-2-amine] | ≤ 0.1 | ≤ 0.1
COc1cc(F)ccc1-c1cccnc1Oc1cnc(N(C)C)nc1 [I-185, 5-{[3-(4-fluoro-2-methoxyphenyl)pyridin-2-yl]oxy}-N,N-dimethylpyrimidin-2-amine] | ≤ 0.1 | ≤ 0.1
CCCSc1ncc(Oc2ncccc2-c2ccc(F)cc2OC)cn1 [I-186, 2-(propylthio)-5-{[3-(4-fluoro-2-methoxyphenyl)pyridin-2-yl]oxy}-pyrimidine] | ≤ 0.1 | ≤ 0.1
CCOc1ncc(Oc2ncccc2-c2ccc(F)cc2OC)cn1 [I-187, 2-ethoxy-5-{[3-(4-fluoro-2-methoxyphenyl)pyridin-2-yl]oxy}pyrimidine] | 1.56 to 6.25 (≈ 4.57 to 18.3 µM) | 1.56 to 6.25 (≈ 4.57 to 18.3 µM)
COCCN(C)c1ncc(Oc2ncccc2-c2ccc(F)cc2OC)cn1 [I-188, 5-{[3-(4-fluoro-2-methoxyphenyl)pyridin-2-yl]oxy}-N-(2-methoxyethyl)-N-methylpyrimidin-2-amine] | ≤ 0.1 | ≤ 0.1
COc1cc(F)ccc1-c1cccnc1Oc1cnc(N(C)CC#N)nc1 [I-189] | 0.2 to 0.78 (≈ 0.547 to 2.13 µM) | 0.2 to 0.78 (≈ 0.547 to 2.13 µM)
COc1cc(F)ccc1-c1cccnc1Oc1cnc(I)nc1 [I-191, 5-{[3-(4-fluoro-2-methoxyphenyl)pyridin-2-yl]oxy}-2-iodopyrimidine] | 0.2 to 0.78 (≈ 0.473 to 1.84 µM) | 0.2 to 0.78 (≈ 0.473 to 1.84 µM)
COC(=O)CN(C)c1ncc(Oc2ncccc2-c2ccc(F)cc2OC)cn1 [I-192, methyl 2-[(5-{[3-(4-fluoro-2-methoxyphenyl)pyridin-2-yl]oxy}-pyrimidin-2-yl)(methyl)amino]acetate] | ≤ 0.1 | ≤ 0.1
COc1cc(F)ccc1-c1cccnc1Oc1cnc(N(C)Cc2cocn2)nc1 [I-193, 5-{[3-(4-fluoro-2-methoxyphenyl)pyridin-2-yl]oxy}-N-methyl-N-(oxazol-4-ylmethyl)pyrimidin-2-amine] | ≤ 0.1 | ≤ 0.1
COc1cc(F)ccc1-c1cccnc1Oc1cnc(N(C)Cc2nccs2)nc1 [I-194, 5-{[3-(4-fluoro-2-methoxyphenyl)pyridin-2-yl]oxy}-N-methyl-N-(thiazol-2-ylmethyl)pyrimidin-2-amine] | 0.2 to 0.78 (≈ 0.472 to 1.84 µM) | ≤ 0.1
CCOC(=O)CCc1ncc(Oc2ncccc2-c2ccc(F)cc2OC)cn1 [I-195, ethyl 3-(5-{[3-(4-fluoro-2-methoxyphenyl)pyridin-2-yl]oxy}-pyrimidin-2-yl)propionate] | 0.2 to 0.78 (≈ 0.503 to 1.96 µM) | 0.2 to 0.78 (≈ 0.503 to 1.96 µM)
CCOC(=O)COc1ncc(Oc2ncccc2-c2ccc(F)cc2OC)cn1 [I-196, ethyl 2-[(5-{[3-(4-fluoro-2-methoxyphenyl)pyridin-2-yl]oxy}-pyrimidin-2-yl)oxy]acetate] | 0.2 to 0.78 (≈ 0.501 to 1.95 µM) | 0.2 to 0.78 (≈ 0.501 to 1.95 µM)
COc1cc(F)ccc1-c1cccnc1Oc1cnc(CCc2cnn(C)c2)nc1 [I-198, 5-{[3-(4-fluoro-2-methoxyphenyl)pyridin-2-yl]oxy}-2-[2-(1-methyl-1H-pyrazol-4-yl)ethyl]pyrimidine] | 0.2 to 0.78 (≈ 0.493 to 1.92 µM) | 0.2 to 0.78 (≈ 0.493 to 1.92 µM)
COc1ccccc1-c1cccnc1Oc1ccc(Cl)cc1 [I-199, 2-(4-chlorophenoxy)-3-(2-methoxyphenyl)pyridine] | ≤ 0.1 | ≤ 0.1
COc1cccc(-c2cccnc2Oc2ccc(Cl)cc2)c1 [I-200, 2-(4-chlorophenoxy)-3-(3-methoxyphenyl)pyridine] | ≤ 0.1 | ≤ 0.1
COc1ccccc1-c1cccnc1Oc1ccc(C(F)(F)F)cc1 [I-201, 3-(2-methoxyphenyl)-2-[4-(trifluoromethyl)phenoxy]pyridine] | ≤ 0.1 | ≤ 0.1

SMILES | MIC [1] [µg/mL] | MIC [2] [µg/mL]
COc1ncccc1-c1cccnc1Oc1ccc(C(F)(F)F)cc1 [I-202, 2-methoxy-2′-[4-(trifluoromethyl)phenoxy]-3,3′-bipyridine] | ≤ 0.1 | ≤ 0.1
COc1ccnc(OC)c1-c1cccnc1Oc1ccc(C(F)(F)F)cc1 [I-203, 2,4-dimethoxy-2′-[4-(trifluoromethyl)phenoxy]-3,3′-bipyridine] | ≤ 0.1 | ≤ 0.1
COc1cnccc1-c1cccnc1Oc1ccc(C(F)(F)F)cc1 [I-204, 3′-methoxy-2-[4-(trifluoromethyl)phenoxy]-3,4′-bipyridine] | ≤ 0.1 | ≤ 0.1
Cc1cnccc1-c1cccnc1Oc1ccc(C(F)(F)F)cc1 [I-205] | ≤ 0.1 | ≤ 0.1
Cc1ccncc1-c1cccnc1Oc1ccc(C(F)(F)F)cc1 [I-206, 4′-methyl-2-[4-(trifluoromethyl)phenoxy]-3,3′-bipyridine] | ≤ 0.1 | ≤ 0.1
Fc1cncc(-c2cccnc2Oc2ccc(C(F)(F)F)cc2)c1Cl [I-207, 4′-chloro-5′-fluoro-2-[4-(trifluoromethyl)phenoxy]-3,3′-bipyridine] | ≤ 0.1 | ≤ 0.1
Cc1c(F)cncc1-c1cccnc1Oc1ccc(C(F)(F)F)cc1 [I-208] | ≤ 0.1 | ≤ 0.1
COc1ncc(F)cc1-c1cccnc1Oc1ccc(C(F)(F)F)cc1 [I-209, 5-fluoro-2-methoxy-2′-[4-(trifluoromethyl)phenoxy]-3,3′-bipyridine] | ≤ 0.1 | ≤ 0.1
COc1ccncc1-c1cccnc1Oc1ccc(C(F)(F)F)cc1 [I-210, 4′-methoxy-2-[4-(trifluoromethyl)phenoxy]-3,3′-bipyridine] | ≤ 0.1 | ≤ 0.1
COc1c(Cl)cncc1-c1cccnc1Oc1ccc(C(F)(F)F)cc1 [I-211, 5′-chloro-4′-methoxy-2-[4-(trifluoromethyl)phenoxy]-3,3′-bipyridine] | ≤ 0.1 | ≤ 0.1
COc1c(F)cncc1-c1cccnc1Oc1ccc(C(F)(F)F)cc1 [I-212, 5′-fluoro-4′-methoxy-2-[4-(trifluoromethyl)phenoxy]-3,3′-bipyridine] | ≤ 0.1 | ≤ 0.1
COc1cccc(-c2cccnc2Oc2ccc(C(F)(F)F)cc2)n1 [I-213, 6-methoxy-2′-[4-(trifluoromethyl)phenoxy]-2,3′-bipyridine] | ≤ 0.1 | ≤ 0.1
COc1ccncc1-c1cc(F)cnc1Oc1ccc(C(F)(F)F)cc1 [I-216, 5-fluoro-4′-methoxy-2-[4-(trifluoromethyl)phenoxy]-3,3′-bipyridine] | ≤ 0.1 | ≤ 0.1
COc1ccncc1-c1cc(Cl)cnc1Oc1ccc(C(F)(F)F)cc1 [I-217, 5-chloro-4′-methoxy-2-[4-(trifluoromethyl)phenoxy]-3,3′-bipyridine] | 1.56 to 6.25 (≈ 4.1 to 16.4 µM) | 1.56 to 6.25 (≈ 4.1 to 16.4 µM)
COc1nccnc1-c1cccnc1Oc1ccc(C(F)(F)F)cc1 [I-218, 2-methoxy-3-{2-[4-(trifluoromethyl)phenoxy]pyridin-3-yl}pyrazine] | ≤ 0.1 | ≤ 0.1
COc1ncncc1-c1cccnc1Oc1ccc(C(F)(F)F)cc1 [I-219, 4-methoxy-5-{2-[4-(trifluoromethyl)phenoxy]pyridin-3-yl}pyrimidine] | ≤ 0.1 | ≤ 0.1
Cc1nn(C)c(Cl)c1-c1cccnc1Oc1ccc(C(F)(F)F)cc1 [I-220, 3-(5-chloro-1,3-dimethyl-1H-pyrazol-4-yl)-2-[4-(trifluoromethyl)phenoxy]pyridine] | ≤ 0.1 | ≤ 0.1
Cn1nccc1-c1cccnc1Oc1ccc(C(F)(F)F)cc1 [I-221, 3-(1-methyl-1H-pyrazol-5-yl)-2-[4-(trifluoromethyl)phenoxy]pyridine] | 0.2 to 0.78 (≈ 0.626 to 2.44 µM) | 0.2 to 0.78 (≈ 0.626 to 2.44 µM)
Cn1ncc(Cl)c1-c1cccnc1Oc1ccc(C(F)(F)F)cc1 [I-222, 3-(4-chloro-1-methyl-1H-pyrazol-5-yl)-2-[4-(trifluoromethyl)phenoxy]pyridine] | ≤ 0.1 | ≤ 0.1
COc1c(-c2cccnc2Oc2ccc(C(F)(F)F)cc2)cnn1C [I-223, 3-(5-methoxy-1-methyl-1H-pyrazol-4-yl)-2-[4-(trifluoromethyl)phenoxy]pyridine] | 0.2 to 0.78 (≈ 0.573 to 2.23 µM) | 0.2 to 0.78 (≈ 0.573 to 2.23 µM)
FC(F)(F)c1ccc(Oc2ncccc2-c2cccc3nccnc23)cc1 [I-224, 5-{2-[4-(trifluoromethyl)phenoxy]pyridin-3-yl}quinoxaline] | ≤ 0.1 | ≤ 0.1
FC(F)(F)c1ccc(Oc2ncccc2-c2cncc3cccnc23)cc1 [I-225, 8-{2-[4-(trifluoromethyl)phenoxy]pyridin-3-yl}-1,6-naphthyridine] | ≤ 0.1 | ≤ 0.1
